# Experimental data published in US6608086B2, “Dihydropyridines and new uses thereof” (Synaptic Pharmaceutical Corporation, priority 1993, dated 2003).
# Legend:
# α2A receptor = molecular target: T1, α2A receptor (Homo sapiens, UniProt P08913); assay: Competition binding, [3H]rauwolscine, human α2A receptor; conditions: for pKi alpha-2 2a: [3H]rauwolscine
# T1 construct: host or cells: LM(tk-) cells, line L-α2A
# T1 sequence (P08913 1-465): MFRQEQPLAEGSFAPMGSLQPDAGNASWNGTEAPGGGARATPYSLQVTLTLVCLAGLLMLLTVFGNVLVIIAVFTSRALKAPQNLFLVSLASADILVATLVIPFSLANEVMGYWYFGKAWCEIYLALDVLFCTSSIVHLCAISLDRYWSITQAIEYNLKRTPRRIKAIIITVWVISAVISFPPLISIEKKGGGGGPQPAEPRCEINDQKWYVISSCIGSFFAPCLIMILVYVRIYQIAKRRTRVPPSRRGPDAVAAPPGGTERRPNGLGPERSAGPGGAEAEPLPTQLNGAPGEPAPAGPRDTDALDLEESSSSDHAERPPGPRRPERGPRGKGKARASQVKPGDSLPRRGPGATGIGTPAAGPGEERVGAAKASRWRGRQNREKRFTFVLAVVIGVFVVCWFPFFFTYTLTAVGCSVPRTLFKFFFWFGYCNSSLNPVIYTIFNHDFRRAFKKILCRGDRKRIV
# Outline: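 Cell lysates from stably transfected LM(tk−) lines are resuspended in 25 mM glycylglycine (pH 7.6 at room temperature), incubated to equilibrium with 0.5 nM [3H]rauwolscine plus competitor, then filtered through GF/B filters; 10 μM phentolamine defines nonspecific binding.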
# [1] = molecular target: T2, α1A Human Adrenergic Receptor (Homo sapiens, UniProt P25100); assay: Radioligand binding, [3H]prazosin, cloned human α1A adrenergic receptor; conditions: for pKi alpha-1 1a: [3H]prazosin
# T2 construct: The entire coding region of α1A (1719 bp); expressed in transfected cells
# T2 sequence (P25100 1-572): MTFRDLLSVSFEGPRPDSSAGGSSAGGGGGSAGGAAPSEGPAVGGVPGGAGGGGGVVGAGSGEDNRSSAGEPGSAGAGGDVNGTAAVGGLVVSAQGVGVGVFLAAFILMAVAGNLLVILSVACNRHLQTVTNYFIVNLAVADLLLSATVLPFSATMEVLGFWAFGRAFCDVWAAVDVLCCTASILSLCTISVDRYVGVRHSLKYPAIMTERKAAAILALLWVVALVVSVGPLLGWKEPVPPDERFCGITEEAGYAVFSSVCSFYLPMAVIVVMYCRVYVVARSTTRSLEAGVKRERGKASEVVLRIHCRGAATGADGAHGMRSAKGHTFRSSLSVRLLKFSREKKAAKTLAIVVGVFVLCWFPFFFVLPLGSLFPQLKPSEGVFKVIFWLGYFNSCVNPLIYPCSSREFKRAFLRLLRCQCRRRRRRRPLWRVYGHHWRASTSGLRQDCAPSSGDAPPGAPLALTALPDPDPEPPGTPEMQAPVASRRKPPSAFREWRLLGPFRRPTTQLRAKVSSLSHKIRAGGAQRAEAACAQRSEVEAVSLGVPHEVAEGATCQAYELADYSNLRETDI
# Outline: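 Membranes from LM(tk−) cells transfected with cloned human α1A receptor, prepared in 50 mM Tris-HCl, 1 mM MgCl2, 0.1% ascorbic acid pH 7.5, were incubated with 0.5 nM [3H]prazosin at 37° C for 20 min. Nonspecific binding was defined with 10 μM phentolamine; bound ligand was separated by GF/B filtration.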
# L-type calcium channel = molecular target: T3, L-type calcium channel (Rattus norvegicus, UniProt P22002); assay: Competition binding of [3H]nitrendipine to membrane fragments of rat cardiac muscle; conditions: for pKi Ca: [3H]nitrendipine
# T3 construct: membrane fragments of rat cardiac muscle; from tissue; host or cells: rat cardiac muscle membranes
# T3 sequence (P22002 whole entry, other chains not shown, the tested form may be a part): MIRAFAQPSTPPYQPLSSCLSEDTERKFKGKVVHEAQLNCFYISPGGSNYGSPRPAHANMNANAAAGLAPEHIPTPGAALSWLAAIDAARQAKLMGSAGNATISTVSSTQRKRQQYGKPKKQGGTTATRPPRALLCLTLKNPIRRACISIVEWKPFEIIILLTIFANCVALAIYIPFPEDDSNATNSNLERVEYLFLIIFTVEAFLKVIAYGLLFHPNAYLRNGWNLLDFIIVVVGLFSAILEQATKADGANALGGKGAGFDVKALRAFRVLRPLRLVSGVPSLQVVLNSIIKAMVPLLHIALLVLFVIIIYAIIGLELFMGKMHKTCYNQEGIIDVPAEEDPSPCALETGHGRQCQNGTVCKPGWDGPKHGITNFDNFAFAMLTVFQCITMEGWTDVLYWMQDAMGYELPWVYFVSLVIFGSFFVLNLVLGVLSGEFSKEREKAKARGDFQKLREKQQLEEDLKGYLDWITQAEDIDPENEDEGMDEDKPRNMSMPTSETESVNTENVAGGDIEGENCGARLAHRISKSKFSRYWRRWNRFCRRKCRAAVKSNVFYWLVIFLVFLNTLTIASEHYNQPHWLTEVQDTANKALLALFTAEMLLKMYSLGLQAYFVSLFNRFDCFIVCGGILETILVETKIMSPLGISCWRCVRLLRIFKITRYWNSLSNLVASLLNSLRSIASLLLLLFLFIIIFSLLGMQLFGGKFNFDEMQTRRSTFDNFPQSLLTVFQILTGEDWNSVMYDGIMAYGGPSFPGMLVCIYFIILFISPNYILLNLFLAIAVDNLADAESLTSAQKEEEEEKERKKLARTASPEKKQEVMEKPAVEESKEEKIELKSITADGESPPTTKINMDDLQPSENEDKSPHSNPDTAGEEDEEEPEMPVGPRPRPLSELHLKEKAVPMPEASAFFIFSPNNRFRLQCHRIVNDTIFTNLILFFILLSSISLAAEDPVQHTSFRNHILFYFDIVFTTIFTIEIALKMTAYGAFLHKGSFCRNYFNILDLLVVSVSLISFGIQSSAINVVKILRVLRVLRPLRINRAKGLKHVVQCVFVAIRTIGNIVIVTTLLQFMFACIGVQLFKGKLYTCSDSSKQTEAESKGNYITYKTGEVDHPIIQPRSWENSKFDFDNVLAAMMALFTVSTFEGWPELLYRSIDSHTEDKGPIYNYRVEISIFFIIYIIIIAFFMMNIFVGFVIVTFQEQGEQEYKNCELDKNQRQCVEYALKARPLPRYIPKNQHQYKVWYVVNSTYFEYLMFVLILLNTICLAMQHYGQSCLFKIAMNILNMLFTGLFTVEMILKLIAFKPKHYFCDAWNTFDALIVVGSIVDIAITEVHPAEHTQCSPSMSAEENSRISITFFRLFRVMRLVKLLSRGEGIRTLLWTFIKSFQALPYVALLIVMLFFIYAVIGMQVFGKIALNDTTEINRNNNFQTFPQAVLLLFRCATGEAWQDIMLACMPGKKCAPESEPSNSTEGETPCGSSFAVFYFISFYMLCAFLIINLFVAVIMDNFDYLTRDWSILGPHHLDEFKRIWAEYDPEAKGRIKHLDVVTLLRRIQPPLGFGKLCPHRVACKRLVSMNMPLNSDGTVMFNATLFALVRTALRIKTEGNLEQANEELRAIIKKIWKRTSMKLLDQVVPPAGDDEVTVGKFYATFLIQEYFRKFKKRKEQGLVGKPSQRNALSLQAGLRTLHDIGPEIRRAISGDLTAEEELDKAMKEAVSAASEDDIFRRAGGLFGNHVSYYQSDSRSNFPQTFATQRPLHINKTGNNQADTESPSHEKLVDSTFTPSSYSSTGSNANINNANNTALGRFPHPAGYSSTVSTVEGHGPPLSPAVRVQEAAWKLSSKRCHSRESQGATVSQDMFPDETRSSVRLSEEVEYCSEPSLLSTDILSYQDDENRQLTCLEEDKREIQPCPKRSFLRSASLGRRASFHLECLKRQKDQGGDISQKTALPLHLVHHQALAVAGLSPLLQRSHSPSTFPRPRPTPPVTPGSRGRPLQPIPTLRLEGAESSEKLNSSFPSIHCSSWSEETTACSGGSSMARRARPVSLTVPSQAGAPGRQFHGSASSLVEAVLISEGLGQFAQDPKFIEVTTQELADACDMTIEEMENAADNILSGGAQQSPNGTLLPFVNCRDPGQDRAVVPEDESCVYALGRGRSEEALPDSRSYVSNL
# T3 sequence (P54290 25-944 partner limits assumed, other chains not shown): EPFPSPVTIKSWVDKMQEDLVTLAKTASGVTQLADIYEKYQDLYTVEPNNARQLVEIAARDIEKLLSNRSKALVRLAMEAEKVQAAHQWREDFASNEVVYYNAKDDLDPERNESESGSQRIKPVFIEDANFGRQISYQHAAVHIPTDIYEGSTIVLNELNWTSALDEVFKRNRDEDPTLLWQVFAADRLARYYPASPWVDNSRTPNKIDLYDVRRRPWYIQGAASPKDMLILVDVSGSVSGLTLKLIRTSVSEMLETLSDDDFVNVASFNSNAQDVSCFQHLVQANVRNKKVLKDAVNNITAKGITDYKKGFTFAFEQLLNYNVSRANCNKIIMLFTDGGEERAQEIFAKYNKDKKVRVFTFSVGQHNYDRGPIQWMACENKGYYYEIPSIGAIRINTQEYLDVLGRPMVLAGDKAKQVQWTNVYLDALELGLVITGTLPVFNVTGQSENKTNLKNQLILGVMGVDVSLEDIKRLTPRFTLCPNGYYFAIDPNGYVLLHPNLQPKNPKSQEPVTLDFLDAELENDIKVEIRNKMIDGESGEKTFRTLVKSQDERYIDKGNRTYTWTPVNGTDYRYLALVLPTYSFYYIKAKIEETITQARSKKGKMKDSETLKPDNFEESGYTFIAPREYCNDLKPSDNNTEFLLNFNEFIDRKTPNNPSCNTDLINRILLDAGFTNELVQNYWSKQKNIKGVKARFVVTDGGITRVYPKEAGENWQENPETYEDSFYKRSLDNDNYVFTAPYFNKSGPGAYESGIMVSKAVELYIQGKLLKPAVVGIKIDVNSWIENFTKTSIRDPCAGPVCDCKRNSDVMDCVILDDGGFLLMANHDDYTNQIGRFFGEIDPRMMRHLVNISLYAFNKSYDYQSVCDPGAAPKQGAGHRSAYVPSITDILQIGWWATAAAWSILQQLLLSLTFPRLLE
# T3 sequence (P54290 945-1091 partner limits assumed, other chains not shown): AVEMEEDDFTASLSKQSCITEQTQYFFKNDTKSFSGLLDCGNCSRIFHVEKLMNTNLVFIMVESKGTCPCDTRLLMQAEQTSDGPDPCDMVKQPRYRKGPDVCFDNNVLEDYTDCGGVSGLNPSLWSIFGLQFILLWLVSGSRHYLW
smiles,measurement,setting,value
"CCC1=C(C(N)=O)C(c2ccc([N+](=O)[O-])cc2)C(C(=O)NCCCN2CCC(O)(c3ccccc3)CC2)=CN1CC.Cl.O (stereo not drawn) [Example 101, 5-Carboxamido-1,6-diethyl-1,4-dihydro-3-{N-[3-(4-hydroxy-4-phenylpiperidin-1-yl)propyl]}carboxamido-4-(4-nitrophenyl)pyridine hydrochloride hydrate]",pKi alpha-2 2a,"α2A receptor; human α2A receptor, LM(tk−) cells",5.89
same,pKi alpha-1 1a,"[1]; cloned human α1A receptor, LM(tk−) cell membranes",5.86
same,pKi Ca,"L-type calcium channel; rat cardiac muscle membrane fragments, L-type calcium channel",3
"CCC1=C(C(=O)NCCCN2CCc3cc(OC)c(OC)cc3C2)C(c2ccc([N+](=O)[O-])cc2)C(C(N)=O)=C(C)N1.Cl.O (stereo not drawn) [Example 76, 5-Carboxamido-2-ethyl-1,4-dihydro-3-(N-(3-(1,2,3,4-tetrahydro-6,7-dimethoxyisoquinolin-2-yl)propyl)) carboxamido-6-methyl-4-(4-nitro)phenylpyridine hydrochloride hydrate]",pKi alpha-2 2a,"α2A receptor; LM(tk-) cell line L-α2A, SEM and n in lines below",6.96
same,pKi alpha-1 1a,"[1]; cloned human receptor in LM(tk-) cell membranes, SEM and n in lines below",5.89
same,pKi Ca,"L-type calcium channel; rat cardiac muscle membranes, SEM and n in lines below",5.49
"CCOC(=O)C1(c2ccccc2)CCN(CCCNC(=O)C2=C(COCCN)NC(CC)=C(C(=O)OC)C2c2ccc([N+](=O)[O-])cc2)CC1 (stereo not drawn) [Example 197, 2-[(2-Aminoethoxy)methyl]-3-{N-[3-(4-ethoxycarbonyl-4-phenylpiperidin-1-yl)propyl]}carboxamido-1,4-dihydro-6-ethyl-5-methoxycarbonyl-4-(4-nitrophenyl) pyridine]",Ki,α2A receptor,1.48 µM
same,Ki,[1]; PKi alpha-1 1a,0.251 µM
same,Ki,L-type calcium channel; PKi Ca,6.31 µM
